Data as given in US20160002248A1, “GLS1 INHIBITORS FOR TREATING DISEASE” (Board of Regents, The University of Texas System, priority 2014, published 2016).

Experiments:
[1] = molecular target: T1, purified recombinant human GAC (GLS1) (Homo sapiens, UniProt O94925); test: GLS1 Enzymatic Activity Assay (dual-coupled enzymatic assay); type: biochemical
T1 sequence (O94925 55-598 isoform O94925-3 limits assumed): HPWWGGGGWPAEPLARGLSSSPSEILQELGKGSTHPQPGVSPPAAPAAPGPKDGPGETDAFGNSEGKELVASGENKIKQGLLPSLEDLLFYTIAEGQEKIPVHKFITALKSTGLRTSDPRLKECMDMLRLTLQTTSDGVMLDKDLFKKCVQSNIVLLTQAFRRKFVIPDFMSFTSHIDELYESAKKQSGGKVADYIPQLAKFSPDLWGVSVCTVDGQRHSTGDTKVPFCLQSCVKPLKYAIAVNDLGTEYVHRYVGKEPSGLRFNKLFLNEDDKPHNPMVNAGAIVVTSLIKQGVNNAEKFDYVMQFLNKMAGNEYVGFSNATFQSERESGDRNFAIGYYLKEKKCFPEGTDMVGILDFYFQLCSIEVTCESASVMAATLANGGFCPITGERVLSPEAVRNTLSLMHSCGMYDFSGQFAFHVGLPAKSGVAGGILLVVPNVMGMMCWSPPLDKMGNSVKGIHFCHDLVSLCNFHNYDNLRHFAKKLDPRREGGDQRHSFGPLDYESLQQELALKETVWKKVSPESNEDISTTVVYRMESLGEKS
Procedure, shortened: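 GAC activity measured by coupling glutamate to glutamate oxidase and HRP, generating resorufin from Amplex UltraRed. Enzyme (2 nM) preincubated with 50 mM potassium phosphate 10 min at room temperature, then inhibitor 10 min; 1 mM glutamine substrate, 1% DMSO. Fluorescence 530/590 nm, kinetic or 20-min endpoint; IC50 from four-parameter logistic fit.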

A549 cells = test: Proliferation Assay (A549 cell viability, Cell Titer Fluor); type: cell-based; conditions: Homo sapiens, 72 hours
Procedure, shortened: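 A549 cells seeded at 1000 cells/well, left 24 h, then exposed to compound for 72 h at 37 °C, 5% CO2, final DMSO 0.5% (v/v). Viability read by Cell Titer Fluor fluorescence; EC50 from four-parameter logistic fit.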

SMILES	IC50 [1] [nM]	EC50 (A549 cells) [nM]
Cc1ccc(CNC(=O)c2cn(CCCCc3cc4cc(-c5ccccc5C(F)(F)F)[nH]c4nn3)nn2)cn1 [Example 215, N-[(6-methylpyridin-3-yl)methyl]-1-(4-{6-[2-(trifluoromethyl)phenyl]-7H-pyrrolo[2,3-c]pyridazin-3-yl}butyl)-1H-1,2,3-triazole-4-carboxamide]	< 100	100 to 500
O=C(NCc1cc(C(F)(F)F)ccn1)c1cn(CCCCc2cc3c(C4CC4)c(C4CCCC4)[nH]c3nn2)nn1 [Example 216, 1-(4-{6-cyclopentyl-5-cyclopropyl-7H-pyrrolo[2,3-c]pyridazin-3-yl}butyl)-N-{[4-(trifluoromethyl)pyridin-2-yl]methyl}-1H-1,2,3-triazole-4-carboxamide]	< 100	100 to 500
O=C(NCc1ccc(C(F)(F)F)nc1)c1cn(CCCCc2cc3c(-c4ccc(F)cc4F)c(C4CC4)[nH]c3nn2)nn1 [Example 217, 1-(4-(6-cyclopropyl-5-(2,4-difluorophenyl)-7H-pyrrolo[2,3-c]pyridazin-3-yl)butyl)-N-((6-(trifluoromethyl)pyridin-3-yl)methyl)-1H-1,2,3-triazole-4-carboxamide]	< 100	100 to 500
O=C(NCc1ccc(C(F)(F)F)cn1)c1cn(CCCCc2cc3c(-c4ccc(F)cc4F)c(C4CC4)[nH]c3nn2)nn1 [Example 218, 1-{4-[6-cyclopropyl-5-(2,4-difluorophenyl)-7H-pyrrolo[2,3-c]pyridazin-3-yl]butyl}-N-{[5-(trifluoromethyl)pyridin-2-yl]methyl}-1H-1,2,3-triazole-4-carboxamide]	< 100	100 to 500
O=C(NCc1cc(C(F)(F)F)ccn1)c1cn(CCCCc2cc3c(-c4ccc(F)cc4F)c(C4CC4)[nH]c3nn2)nn1 [Example 219, 1-{4-[6-cyclopropyl-5-(2,4-difluorophenyl)-7H-pyrrolo[2,3-c]pyridazin-3-yl]butyl}-N-{[4-(trifluoromethyl)pyridin-2-yl]methyl}-1H-1,2,3-triazole-4-carboxamide]	< 100	< 100
O=C(NCc1cccc(C(F)(F)F)n1)c1cn(CCCCc2cc3c(-c4ccc(F)cc4F)c(C4CC4)[nH]c3nn2)nn1 [Example 220, 1-{4-[6-cyclopropyl-5-(2,4-difluorophenyl)-7H-pyrrolo[2,3-c]pyridazin-3-yl]butyl}-N-{[6-(trifluoromethyl)pyridin-2-yl]methyl}-1H-1,2,3-triazole-4-carboxamide]	< 100	100 to 500
O=C(NCc1cncc(C(F)(F)F)c1)c1cn(CCCCc2cc3c(-c4ccc(F)cc4F)c(C4CC4)[nH]c3nn2)nn1 [Example 221, 1-{4-[6-cyclopropyl-5-(2,4-difluorophenyl)-7H-pyrrolo[2,3-c]pyridazin-3-yl]butyl}-N-{[5-(trifluoromethyl)pyridin-3-yl]methyl}-1H-1,2,3-triazole-4-carboxamide]	< 100	< 100
O=C(NCc1ccc(CF)nc1)c1cn(CCCCc2cc3c(-c4ccc(F)cc4F)c(C4CC4)[nH]c3nn2)nn1 [Example 222, 1-{4-[6-cyclopropyl-5-(2,4-difluorophenyl)-7H-pyrrolo[2,3-c]pyridazin-3-yl]butyl}-N-{[6-(fluoromethyl)pyridin-3-yl]methyl}-1H-1,2,3-triazole-4-carboxamide]	< 100	100 to 500
O=C(NCc1cc(OC(F)(F)F)ccc1F)c1cn(CCCCc2cc3cc(C4CN(C(=O)C5CCC5)C4)[nH]c3nn2)nn1 [Example 223, 1-{4-[6-(1-cyclobutanecarbonylazetidin-3-yl)-7H-pyrrolo[2,3-c]pyridazin-3-yl]butyl}-N-{[2-fluoro-5-(trifluoromethoxy)phenyl]methyl}-1H-1,2,3-triazole-4-carboxamide]	< 100	< 100
O=C(NCc1cc(OC(F)(F)F)ccc1F)c1cn(CCCCc2cc3cc(C4CN(C(=O)C5CC5)C4)[nH]c3nn2)nn1 [Example 224, 1-{4-[6-(1-cyclopropanecarbonylazetidin-3-yl)-7H-pyrrolo[2,3-c]pyridazin-3-yl]butyl}-N-{[2-fluoro-5-(trifluoromethoxy)phenyl]methyl}-1H-1,2,3-triazole-4-carboxamide]	< 100	100 to 500
O=C(NCc1cc(OC(F)(F)F)ccc1F)c1cn(CCCCc2cc3cc(C4CN(C(=O)C5(C(F)(F)F)CC5)C4)[nH]c3nn2)nn1 [Example 225, N-{[2-fluoro-5-(trifluoromethoxy)phenyl]methyl}-1-[4-(6-{1-[1-(trifluoromethyl)cyclopropane-carbonyl]azetidin-3-yl}-7H-pyrrolo[2,3-c]pyridazin-3-yl)butyl]-1H-1,2,3-triazole-4-carboxamide]	< 100	< 100
O=C(NCc1cc(OC(F)(F)F)ccc1F)c1cn(CCCCc2cc3cc(C4CN(C(=O)C5CC(F)(F)C5)C4)[nH]c3nn2)nn1 [Example 226, 1-(4-{6-[1-(3,3-difluorocyclobutanecarbonyl)azetidin-3-yl]-7H-pyrrolo[2,3-c]pyridazin-3-yl}butyl)-N-{[2-fluoro-5-(trifluoromethoxy)phenyl]methyl}-1H-1,2,3-triazole-4-carboxamide]	< 100	100 to 500
CC(C)(F)C(=O)N1CC(c2cc3cc(CCCCn4cc(C(=O)NCc5cc(OC(F)(F)F)ccc5F)nn4)nnc3[nH]2)C1 [Example 227, 1-(4-{6-[1-(2-fluoro-2-methylpropanoyl)azetidin-3-yl]-7H-pyrrolo[2,3-c]pyridazin-3-yl}butyl)-N-{[2-fluoro-5-(trifluoromethoxy)phenyl]methyl}-1H-1,2,3-triazole-4-carboxamide]	< 100	< 100
COc1ccccc1-c1cc2cc(CCCCn3cc(C(=O)NCc4ccc(C)nc4)nn3)nnc2[nH]1 [Example 228, 1-{4-[6-(2-methoxyphenyl)-7H-pyrrolo[2,3-c]pyridazin-3-yl]butyl}-N-[(6-methylpyridin-3-yl)methyl]-1H-1,2,3-triazole-4-carboxamide]	< 100	< 100
CC(C)(C(=O)N1CC(c2cc3cc(CCCCn4cc(C(=O)NCc5cc(OC(F)(F)F)ccc5F)nn4)nnc3[nH]2)C1)C(F)(F)F [Example 229, N-(2-fluoro-5-(trifluoromethoxy)benzyl)-1-(4-(6-(1-(3,3,3-trifluoro-2,2-dimethylpropanoyl)azetidin-3-yl)-7H-pyrrolo[2,3-c]pyridazin-3-yl)butyl)-1H-1,2,3-triazole-4-carboxamide]	< 100	< 100
CC(C)S(=O)(=O)N1CC(c2cc3cc(CCCCn4cc(C(=O)NCc5cc(OC(F)(F)F)ccc5F)nn4)nnc3[nH]2)C1 [Example 230, N-{[2-fluoro-5-(trifluoromethoxy)phenyl]methyl}-1-(4-{6-[1-(propane-2-sulfonyl)azetidin-3-yl]-7H-pyrrolo[2,3-c]pyridazin-3-yl}butyl)-1H-1,2,3-triazole-4-carboxamide]	< 100	100 to 500
Cc1ccc(CNC(=O)c2cn(CC(F)CCc3cc4cc(C5CC5)[nH]c4nn3)nn2)cn1 (stereo not drawn) [Example 231, 1-(4-{6-cyclopropyl-7H-pyrrolo[2,3-c]pyridazin-3-yl)-2-fluorobutyl)-N-[(6-methylpyridin-3-yl)methyl]-1H-1,2,3-triazole-4-carboxamide]	< 100	100 to 500
Cc1ccc(CNC(=O)c2cn(CCCCc3cc4cc(-c5cc(F)cc(F)c5)[nH]c4nn3)nn2)cn1 [Example 232, 1-{4-[6-(3,5-difluorophenyl)-7H-pyrrolo[2,3-c]pyridazin-3-yl]butyl}-N-[(6-methylpyridin-3-yl)methyl]-1H-1,2,3-triazole-4-carboxamide]	< 100	100 to 500
O=C(NCc1cc(OC(F)(F)F)ccc1F)c1cn(CCCCc2cc3cc(C4CN(C(=O)OC5CCC5)C4)[nH]c3nn2)nn1 [Example 233, cyclobutyl 3-(3-{4-[4-({[2-fluoro-5-(trifluoromethoxy)phenyl]methyl}carbamoyl)-1H-1,2,3-triazol-1-yl]butyl}-7H-pyrrolo[2,3-c]pyridazin-6-yl)azetidine-1-carboxylate]	< 100	< 100
O=C(NCc1cc(OC(F)(F)F)ccc1F)c1cn(CCCCc2cc3cc(C4CN(S(=O)(=O)C(F)(F)F)C4)[nH]c3nn2)nn1 [Example 234, N-{[2-fluoro-5-(trifluoromethoxy)phenyl]methyl}-1-{4-[6-(1-trifluoromethanesulfonyl-azetidin-3-yl)-7H-pyrrolo[2,3-c]pyridazin-3-yl]butyl}-1H-1,2,3-triazole-4-carboxamide]	< 100	< 100
O=C(NCc1cc(OC(F)(F)F)ccc1F)c1cn(CCCCc2cc3cc(C4CN(C(=O)C5COC5)C4)[nH]c3nn2)nn1 [Example 235, N-{[2-fluoro-5-(trifluoromethoxy)phenyl]methyl}-1-(4-{6-[1-(oxetane-3-carbonyl)azetidin-3-yl]-7H-pyrrolo[2,3-c]pyridazin-3-yl}butyl)-1H-1,2,3-triazole-4-carboxamide]	< 100	500 to 5000
